# Reference: US10688084B2 (priority 2016, dated 2020)
# Where two headings read alike, the source gives them in different places.
# How the values were obtained:
# Wistar rats [1] = settings: for Number of animals in the group/number of dead animals / LD10 / LD16 / LD84: rat; for Number of animals in the group/number of dead animals: 14 days; for LD10 / LD16 / LD84: intragastric
# Experimental: The experiment was performed according to the fixed dose method in Wistar rats of both sexes, 6 animals per group. […] The solvent used was a 0.5% Tween-80 solution (Tween 80—polyoxyethylene, a derivative of sorbitan and oleic acid, a commercially available polymer), which was prepared by dissolving 0.5 g of Tween-80 in 100 ml of distilled water.
# The introduction was carried out to animals deprived of food (for a period of not less than 8 hours) with free access to water. The volume of administration was calculated individually for each animal, based on the body mass recorded immediately before the introduction of the substance. Access to the feed was renewed an hour after the introduction. Animals were observed individually after administration for 30 minutes, then at least once per hour for 4 hours, then daily once a day for 14 days. Body mass was recorded immediately before the administration of the preparation to calculate the volume of administration, then once every two days. If the animal died during the study, the time of death was determined and documented as accurately as possible. The animal was weighed and dissected as soon as possible. Dying animals were weighed, euthanized and dissected. Animals were euthanized by inhalation of carbon dioxide. Toxic doses LD10, LD16, LD50 and LD84 were calculated using probit analysis with IBM SPSS Statistics software.
# At the end of the experiment, euthanasia and pathomorphological dissection of control and experimental animals were performed.
# Wistar rats [2] = assay: Acute (carrageenin) paw edema, anti-inflammatory activity in vivo; parameters: species or system rat; settings: for ED50: Rattus norvegicus, read-out: ED50 acute inflammation; for Paw volume 0 / Paw volume 3 h: in mL (unit assumed); for Anti-inflammatory effect, %: control = 100.00
# Experimental: The experiment was carried out using female and male Wistar rats aged 6-7 weeks with a body mass of 180-220 g. The number of animals in each group was 10.
# The acute inflammatory reaction (edema) was reproduced by subplantar (under plantar or plantar aponeurosis) administration of 0.1 ml of 1% carrageenin solution (sulfated polysaccharide from Irish sea moss). The severity of the inflammatory reaction was assessed 3 hours after the induction of inflammation by a change in the volume of the paw (oncometric). The substance of formula I was administered into the stomach with the probe 1 hour before the introduction of the 1% solution of carrageenin. A 0.5% Tween-80 solution was used as a negative control. The anti-inflammatory effect, assessed by a decrease in edema, was expressed as a percentage of the control. According to the results of the action of four doses of the analyte, the calculation of ED50 was performed.
# The introduction to rats was carried out in the amount of no more than 1 ml/100 g. The concentration of the resulting solution was 5 mg/ml.
# Animals were euthanized by inhalation of carbon dioxide.
# [3] = mean value without sex distinction
# [4] = female rats, 5 mg/kg intragastric
# [5] = female rats, 10 mg/kg intragastric
# [6] = female rats, 20 mg/kg intragastric
# [7] = female rats, 50 mg/kg intragastric
# [8] = male rats, 5 mg/kg intragastric
# [9] = male rats, 10 mg/kg intragastric
# [10] = male rats, 20 mg/kg intragastric
# [11] = male rats, 50 mg/kg intragastric
smiles,measurement,setting,value
"COc1ccc2cc([C@H](C)C(=O)OCc3cnc(C)c(OC(=O)[C@@H](C)c4ccc5cc(OC)ccc5c4)c3COC(=O)[C@@H](C)c3ccc4cc(OC)ccc4c3)ccc2c1 [Compound of formula I, 3-((S)-2-(6-methoxynaphth-2-yl)propanoiloxy)-4,5-bis (((S)-2-(6-methoxinaphtht-2-yl)propanoiloxy)methyl)-2-methylpyridinium (S)-2-(6-methoxynaphth-2-yl) propanoate]",Dead animals,"Wistar rats [1]; 5000 mg/kg intragastric, female, three days later",1 rat
same,Clinical observation after administration,"Wistar rats [1]; 5000 mg/kg intragastric, symptom disappeared in 20-30 minutes",slight inhibition of the activity of the animal
same,Body mass increase,"Wistar rats [1]; 5000 mg/kg, 2 days after start",1-4%
same,Body mass increase,"Wistar rats [1]; 5000 mg/kg, 4 days after start",2-6%
same,Body mass increase,"Wistar rats [1]; 5000 mg/kg, eighth day",2-8%
same,Autopsy findings,"Wistar rats [1]; 5000 mg/kg, end of experiment",No changes were observed
same,Body mass increase,"Wistar rats [1]; 5000 mg/kg, end of the experiment",5-13%
same,Hazard class (GOST 12.1.007-76),Wistar rats [1]; intragastric administration,4th hazard class
same,Number of animals in the group/number of dead animals,"Wistar rats [1]; females, 5000 mg/kg intragastric",6/1
same,LD10,Wistar rats [1]; females,>5000
same,LD16,Wistar rats [1]; females,>5000
same,LD84,Wistar rats [1]; females,>5000
same,Number of animals in the group/number of dead animals,"Wistar rats [1]; males, 5000 mg/kg intragastric",6/0
same,LD10,Wistar rats [1]; males,>5000
same,LD16,Wistar rats [1]; males,>5000
same,LD84,Wistar rats [1]; males,>5000
same,ED50,Wistar rats [2]; females,14 mg/kg
same,ED50,Wistar rats [2]; males,23 mg/kg
same,ED50,Wistar rats [2]; [3],18.5 mg/kg
same,"Inflammatory edema decreased by, vs control group","Wistar rats [2]; female rats, 5 mg/kg",13.37%
same,Paw volume 0,Wistar rats [2]; [4],1.00 ± 0.03
same,Paw volume 3 h,Wistar rats [2]; [4],1.94 ± 0.20
same,"Anti-inflammatory effect, %","Wistar rats [2]; female rats, 5 mg/kg",86.63 ± 17.71%
same,"Inflammatory edema decreased by, vs control group","Wistar rats [2]; female rats, 10 mg/kg",38.64%
same,Paw volume 0,Wistar rats [2]; [5],0.96 ± 0.06
same,Paw volume 3 h,Wistar rats [2]; [5],1.60 ± 0.16
same,"Anti-inflammatory effect, %","Wistar rats [2]; female rats, 10 mg/kg",61.36 ± 17.12%
same,"Inflammatory edema decreased by, vs control group","Wistar rats [2]; female rats, 20 mg/kg",67.89%
same,Paw volume 0,Wistar rats [2]; [6],0.91 ± 0.09
same,Paw volume 3 h,Wistar rats [2]; [6],1.23 ± 0.20
same,"Anti-inflammatory effect, %","Wistar rats [2]; female rats, 20 mg/kg",32.11 ± 15.06%
same,"Inflammatory edema decreased by, vs control group","Wistar rats [2]; female rats, 50 mg/kg",65.47%
same,Paw volume 0,Wistar rats [2]; [7],0.91 ± 0.05
same,Paw volume 3 h,Wistar rats [2]; [7],1.26 ± 0.23
same,"Anti-inflammatory effect, %","Wistar rats [2]; female rats, 50 mg/kg",34.53 ± 18.52%
same,"Inflammatory edema decreased by, vs control group","Wistar rats [2]; male rats, 5 mg/kg",12.39%
same,Paw volume 0,Wistar rats [2]; [8],0.89 ± 0.07
same,Paw volume 3 h,Wistar rats [2]; [8],1.87 ± 0.21
same,"Anti-inflammatory effect, %","Wistar rats [2]; male rats, 5 mg/kg",87.61 ± 19.75%
same,"Inflammatory edema decreased by, vs control group","Wistar rats [2]; male rats, 10 mg/kg",23.57%
same,Paw volume 0,Wistar rats [2]; [9],0.93 ± 0.06
same,Paw volume 3 h,Wistar rats [2]; [9],1.84 ± 0.23
same,"Anti-inflammatory effect, %","Wistar rats [2]; male rats, 10 mg/kg",76.43 ± 22.74%
same,"Inflammatory edema decreased by, vs control group","Wistar rats [2]; male rats, 20 mg/kg",51.25%
same,Paw volume 0,Wistar rats [2]; [10],0.93 ± 0.05
same,Paw volume 3 h,Wistar rats [2]; [10],1.51 ± 0.16
same,"Anti-inflammatory effect, %","Wistar rats [2]; male rats, 20 mg/kg",48.75 ± 16.39%
same,"Inflammatory edema decreased by, vs control group","Wistar rats [2]; male rats, 50 mg/kg",62.34%
same,Paw volume 0,Wistar rats [2]; [11],1.04 ± 0.20
same,Paw volume 3 h,Wistar rats [2]; [11],1.54 ± 0.45
same,"Anti-inflammatory effect, %","Wistar rats [2]; male rats, 50 mg/kg",37.66 ± 19.16%
same,ED50 acute inflammation,Wistar rats [2]; [3],19 mg/kg
